Laboratory results from ChEMBL document CHEMBL3758092, “Discovery and preclinical evaluation of potent, orally bioavailable, metabolically stable cyclopropylindolobenzazepine acylsulfonamides as thumb site 1 inhibitors of the hepatitis c virus NS5B RNA-dependent, RNA polymerase” (Bioorg Med Chem Lett, 2016).
Each block holds one molecule with its values, some of them ahead of it.

Assays:
Hepatitis C virus [1] = test: Antiviral activity against HCV1b by replicon assay; type: functional, organism-based, Hepacivirus hominis; conditions: genotype 1b
[2] = Drug uptake in rat at 10 mg/kg, po liver after 6 hrs; type: ADME, organism-based; conditions: read-out: Drug uptake
Hepatitis C virus [3] = test: Antiviral activity against HCV1a by replicon assay; type: functional, organism-based, Hepacivirus hominis; conditions: subtype 1a
[4] = Half life in cynomolgus monkey liver microsomes; type: ADME, Macaca fascicularis
[5] = Ratio of drug level in liver to plasma in rat at 10 mg/kg, po after 6 hrs; type: ADME, organism-based
[6] = Half life in human liver microsomes; type: ADME
[7] = Clearance in rat at 10 mg/kg, po; type: ADME, organism-based; conditions: in vivo
[8] = (§1) Drug uptake in rat at 10 mg/kg, po liver after 48 hrs; type: ADME, organism-based; conditions: liver, read-out: Drug uptake
[9] = Oral bioavailability in rat at 10 mg/kg; type: ADME, organism-based; conditions: in vivo
in vitro = conditions: rat, liver microsomes
Description: Metabolic stability in rat liver microsomes assessed as compound remaining after 10 mins

Hepatitis C virus [10] = test: Antiviral activity against HCV1b by replicon assay in presence of 40% human serum; type: functional, organism-based, Hepacivirus hominis; conditions: genotype 1b
Liver = test: as §1; type: ADME, organism-based; conditions: in vivo, 48 h, BLD = below limit of detection
[11] = Plasma concentration in rat at 10 mg/kg, po after 6 hrs; type: ADME, organism-based
[12] = Permeability of the compound at pH 7.4 by PAMPA; type: ADME; conditions: read-out: permeability
[13] = Drug uptake in rat at 10 mg/kg, po liver after 4 hrs; type: ADME, organism-based; conditions: read-out: Drug uptake

SMILES: COc1ccc2c(c1)C1CC1(C(=O)N1C3CCC1CN(C)C3)Cn1c-2c(C2CCCCC2)c2ccc(C(=O)NS(=O)(=O)C3CCC3)cc21 (racemic)
EC50 (Hepatitis C virus [1]): 0.04 µM
concentration at 6 h [2]: 38.8 µM
EC50 (Hepatitis C virus [3]): 0.023 µM
half-life [4]: 0.775 h
Kp at 6 h [5]: 67
half-life [6]: > 1 h
CL/F [7]: 0.312 L/h/kg

SMILES: CCCCS(=O)(=O)NC(=O)c1ccc2c(C3CCCCC3)c3n(c2c1)CC1(C(=O)N2C4CCC2CN(C)C4)CC1c1cc(OC)ccc1-3 (racemic)
EC50 (Hepatitis C virus [1]): 0.045 µM
EC50 (Hepatitis C virus [3]): 0.015 µM
half-life [4]: 0.317 h
half-life [6]: 1.22 h

SMILES: COc1ccc2c(c1)C1CC1(C(=O)N1C3CCC1CN(C)C3)Cn1c-2c(C2CCCCC2)c2ccc(C(=O)NS(=O)(=O)CC3CC3)cc21 (racemic)
EC50 (Hepatitis C virus [1]): 0.022 µM
EC50 (Hepatitis C virus [3]): 0.005 µM
half-life [4]: 0.65 h
concentration at 48 h [8]: 0.15 µM
bioavailability [9]: 13.7%
half-life [6]: 3.33 h
CL/F [7]: 1.18 L/h/kg

SMILES: COc1ccc2c(c1)[C@@H]1C[C@]1(C(=O)N1C3CCC1CN(C)C3)Cn1c-2c(C2CCCCC2)c2ccc(C(=O)NS(=O)(=O)C3CCC3)cc21
EC50 (Hepatitis C virus [1]): 0.005 µM
remaining at 10 min (in vitro): 87.8%
half-life [4]: 1.09 h
EC50 (Hepatitis C virus [10]): 0.07 µM
concentration at 48 h [8]: 0.07 µM
bioavailability [9]: 28%
half-life [6]: 1.18 h
CL/F [7]: 0.804 L/h/kg

EC50 (Hepatitis C virus [1]): 0.056 µM
EC50 (Hepatitis C virus [3]): 0.015 µM
half-life [4]: 0.15 h
Drug uptake (Liver): BLD
bioavailability [9]: 19.1%
half-life [6]: 0.75 h
CL/F [7]: 0.798 L/h/kg
SMILES: COc1ccc2c(c1)C1CC1(C(=O)N1C3CCC1CN(C)C3)Cn1c-2c(C2CCCCC2)c2ccc(C(=O)NS(=O)(=O)CC3CCC3)cc21 (racemic)

SMILES: CCS(=O)(=O)NC(=O)c1ccc2c(C3CCCCC3)c3n(c2c1)CC1(C(=O)N2C4CCC2CN(C)C4)CC1c1cc(OC)ccc1-3 (racemic)
EC50 (Hepatitis C virus [1]): 0.023 µM
concentration at 6 h [2]: 7.9 µM
EC50 (Hepatitis C virus [3]): 0.017 µM
half-life [4]: 1.2 h
Kp at 6 h [5]: 108
half-life [6]: 3.43 h
CL/F [7]: 2.4 L/h/kg

SMILES: COc1ccc2c(c1)C1CC1(C(=O)N1C3CCC1CN(C)C3)Cn1c-2c(C2CCCCC2)c2ccc(C(=O)NS(=O)(=O)N3CCC3)cc21 (racemic)
EC50 (Hepatitis C virus [1]): 0.024 µM
concentration at 6 h [11]: 0.02 µM
concentration at 6 h [2]: 0.8 µM
remaining at 10 min (in vitro): 100%
EC50 (Hepatitis C virus [3]): 0.012 µM
half-life [4]: 0.917 h
Papp [12]: 665 nm/s
half-life [6]: 2.25 h

SMILES: COc1ccc2c(c1)C1CC1(C(=O)N1C3CCC1CN(C)C3)Cn1c-2c(C2CCCCC2)c2ccc(C(=O)NS(=O)(=O)N(C)C)cc21 (racemic)
EC50 (Hepatitis C virus [1]): 0.012 µM
remaining at 10 min (in vitro): 100%
concentration at 4 h [13]: 69 µM
Papp [12]: 713 nm/s
half-life [6]: 1.27 h

SMILES: CCN(C)S(=O)(=O)NC(=O)c1ccc2c(C3CCCCC3)c3n(c2c1)CC1(C(=O)N2C4CCC2CN(C)C4)CC1c1cc(OC)ccc1-3 (racemic)
EC50 (Hepatitis C virus [1]): 0.013 µM
concentration at 6 h [11]: 0.178 µM
concentration at 6 h [2]: 36.4 µM
remaining at 10 min (in vitro): 94%
EC50 (Hepatitis C virus [3]): 0.014 µM
Papp [12]: 561 nm/s
half-life [6]: 0.455 h

EC50 (Hepatitis C virus [1]): 0.041 µM
concentration at 6 h [2]: 65.3 µM
EC50 (Hepatitis C virus [3]): 0.023 µM
half-life [4]: 0.14 h
Kp at 6 h [5]: 14.5
half-life [6]: 0.8 h
CL/F [7]: 0.246 L/h/kg
SMILES: COc1ccc2c(c1)C1CC1(C(=O)N1C3CCC1CN(C)C3)Cn1c-2c(C2CCCCC2)c2ccc(C(=O)NS(=O)(=O)CC(C)(C)C)cc21 (racemic)

SMILES: COc1ccc2c(c1)C1CC1(C(=O)N1C3CCC1CN(C)C3)Cn1c-2c(C2CCCCC2)c2ccc(C(=O)NS(=O)(=O)C3CC3)cc21 (racemic)
EC50 (Hepatitis C virus [1]): 0.015 µM
EC50 (Hepatitis C virus [3]): 0.007 µM
half-life [4]: 2.17 h
concentration at 4 h [13]: 6.4 µM
Kp at 6 h [5]: 66
bioavailability [9]: 4.9%
half-life [6]: 2.98 h
CL/F [7]: 1.61 L/h/kg
